Structures are written as SMILES.

One molecule from patent publication US10532066B2, “Surfactant lipids, compositions thereof, and uses thereof” (National Jewish Health, priority 2007, dated 2020) can be followed below.

The test system of one assay is multiple TLRs. Put plainly: Activation of RAW 264.7 macrophages by multiple TLRs (TNFα, Example 8). The class given is cell-based. The note with it: 200 ug/ml POPG, 5 hours.
Assay [1] deals with Respiratory Syncytial Virus (RSV). The experiment in a line: Cytopathic effects of RSV upon NHBE cells (photomicrography). Type of assay: cell-based. On the procedure: Monolayers of NHBE cells were infected with RSV at a multiplicity of 3 for 72 h. Infections were performed on cells in either the absence or the presence of POPG (200 ug/ml). The cell monolayers were photographed at a magnification of 200×. Controls consisted of no viral challenge in either the presence or absence of POPG as indicated.
Monolayers of NHBE cells were infected with RSV at a multiplicity of 3 for 72 h. Infections were performed on cells in either the absence (b) or the presence (c,f) of POPG (200 ug/ml) and POPC (200 ug/ml) as indicated. Cells were photographed at a magnification of 200×. Controls (a,d,e) consisted of cell layers either not exposed to virus or exposed to POPG, and POPC in the absence of virus as indicated.
Monolayers of normal human bronchial epithelial cells were infected with RSV at a multiplicity of 0.5-1, in either the presence or absence of 200 ug/ml POPG, or 200 ug/ml POPC, as indicated.

Assay [2] deals with RSV. The experiment in a line: RSV binding to solid phase phospholipids (ELISA). The note with it: 10 ug lipid per well, varying RSV. More on the design: species or system Respiratory Syncytial Virus (RSV). On the procedure: Solid phase phospholipids (10 ug) were adsorbed to microtiter wells by evaporation of ethanol solvent. The wells were blocked with albumin and exposed to varying concentrations of RSV as shown in the left panel of FIG. 37. The wells were washed 3 times with phosphate buffered saline and the bound virus was detected by ELISA using polyclonal rabbit anti-RSV.
Background: An ELISA detects its analyte on a solid surface through an enzyme-linked reagent.

Assay [3] relates to RSV. The experiment in a line: RSV infection of mice. The class given is in vivo. The note with it: 10^7 RSV with 200 ug/ml POPG, three days. Here is the method: Groups of 8 mice were inoculated with 10^7 RSV in either the absence (RSV), or presence of 200 ug/ml POPG (RSV+POPG). Control experiments consisted of UV inactivated RSV (URV), or saline treatment (CON), or POPG treatment without virus (POPG). Three days after the inoculations, the animals were killed and the lungs harvested and processed for viral content by quantitative plaque assay (left panel of FIG. 41), and histopathology (right panel of FIG. 41)

Consider `CCCCCCCC/C=C\CCCCCCCC(=O)O[C@H](COC(=O)CCCCCCCCCCCCCCC)COP(=O)(O)OCC(O)CO` (some centres unmarked) [POPG, palmitoyl-oleoyl-phosphatidylglycerol], for which the “activation of RAW 264.7 macrophages by multiple TLRs (TNFα)” value in the assay on multiple TLRs was “inhibits activation”. The “killing of cells by RSV” value in assay [1] (multiplicity 0.5-1, 72 h, 200 ug/ml) was “prevents the killing”. Further, the “cytopathic effects of RSV” value in assay [1] (multiplicity 3, 72 h, lipid 200 ug/ml) is “prevents the cytopathic effects”. For the same molecule, the “binding of RSV to solid phase phospholipid” value in the assay on RSV [2] was “binds RSV with high affinity and specificity”. Further, the “RSV infection in vivo (lung viral content, histopathology)” value in the assay with RSV [3] was “suppresses”.
